# Results: PMC7932537, “Quantitative profiling of protease specificity” (PLoS Computational Biology, 2021)
# Experiments:
# [1] = tested on: MMP-2; experiment: Substrate phage display with NGS: relative probability (RP) of P3-P1' tetramer clusters; type: biochemical, human; details: for MMP2 relative probability (RP): MMP2 tetramers from unique substrates, unrounded values; for relative probability (RP) of matching tetramer: P3-P1' tetramer matching the MS detected MMP2 cleavage sequence, RP_above_4.5
# [2] = tested on: MMP-9; experiment: as above; type: biochemical, human; details: for corresponding MMP9 relative probability (RP): MMP2 tetramers from unique substrates, RP of same tetramer for MMP9; for relative_probability: tetramer clusters unique to the MMP-9 selectome, MMP-9 RP
# [3] = RP according to MMP2, P3-P1' tetramer of unique physiologic MMP2 substrates from MEROPS
# [4] = MMP2, RP of matching P3-P1' tetramer, common set of MMP2-9 selectome, RP above KL threshold
# [5] = RP of matching tetramer, common MMP2-9 selectome
# [6] = MMP9, RP of matching P3-P1' tetramer, common set of MMP2-9 selectome
# [7] = MMP9, RP of the P3-P1' tetramer matching the MS detected cleavage, RP above 4.7, substrate phage display with NGS
# [8] = RP of matching tetramer, common MMP2-9 selectome, RP above KL threshold
# [9] = RP of the P3-P1' tetramer, MMP2 substrate phage display/NGS, tetramers of physiologic MEROPS substrates common to MMP2 and MMP9
# [10] = RP according to MMP9, P3-P1' tetramer of unique physiologic MMP9 substrates from MEROPS
# [11] = RP of the P3-P1' tetramer, MMP9 substrate phage display/NGS, tetramers of physiologic MEROPS substrates common to MMP2 and MMP9
# [12] = tetramer projected onto MMP-9 cleavage sites determined by Prudova et al. (2010)
# [13] = normalized RP of matching tetramer, unique part of MMP2 selectome
# [14] = RP of the P3-P1' tetramer cluster contained in the hexamer, 200 nM MMP-2, 2 h, 37°C, two rounds of selection
# [15] = MMP9, RP of the P3-P1' tetramer contained in the hexamer substrate (substrate phage display, NGS)
# [16] = tetramer probability in MMP9 set / naive library, 200 nM protease, 2 h, 37°C
substance,measurement,setting,value
HARL,MMP2 relative probability (RP),[1],17.6482
same,Relative probability (RP) rank,[1]; [3],2341
same,relative probability (RP),[1]; [3],17.65
same,corresponding MMP9 relative probability (RP),[2],0.3259
PGMI,relative probability (RP) (acc.to MMP2),[1]; [4],17.65
same,relative probability (RP) of matching tetramer,[1],17.65
same,relative probability (RP) (acc.to MMP2),[1]; [5],17.65
same,relative probability (RP) (acc.to MMP9),[2]; [6],13.36
same,relative probability (RP),[2]; [7],13.36
same,relative probability (RP) (acc.to MMP9),[2]; [8],13.36
VQAM,relative probability (RP) (acc.to MMP2),[1]; [5],21.36
same,relative probability (RP),[2]; [7],21.63
same,relative probability (RP) (acc.to MMP9),[2]; [8],21.63
LSKI,MMP2 relative probability (RP),[1],4.524
same,Relative probability (RP) rank,[1]; [3],7909
same,relative probability (RP),[1]; [3],4.52
same,relative probability (RP) (acc.to MMP2),[1]; [9],4.52
same,corresponding MMP9 relative probability (RP),[2],0.06898
same,Relative probability (RP) rank,[2]; [10],65498
same,relative probability (RP),[2]; [10],0.07
same,relative probability (RP) (acc.to MMP9),[2]; [11],0.07
PQLL,avg_RP,"[1]; MMP2 - no binning, average relative probability (RP) of the P3-P1' tetramer, redundant tetramers have been averaged out",22.6078
same,relative probability (RP) (acc.to MMP2),[1]; [5],22.61
same,relative probability (RP),[2]; [7],32.66
same,relative probability (RP) (acc.to MMP9),[2]; [8],32.66
PVGV [P3-P1' tetramer cluster],relative probability (RP),[2]; [12],34.33
PANA,relative probability (RP) of matching tetramer,[1],17.73
same,relative probability (RP) (acc.to MMP2),"[1]; RP of matching tetramer, unique part of MMP2 selectome, RP above KL threshold",17.73
same,normalized RP - MMP2,[1]; [13],0.4855
same,relative probability (RP) (acc.to MMP9),"[2]; RP of matching tetramer, unique part of MMP2 selectome",2.68
same,normalized RP - MMP9,[2]; [13],0.05116
PAAV,relative probability (RP) (acc.to MMP2),[1]; [5],30.72
same,relative probability (RP),[2]; [7],36.05
same,relative probability (RP) (acc.to MMP9),[2]; [8],36.05
SPPAAI,relative probability (RP),[1]; [14],32.0972
same,relative probability (RP),[2]; [15],46.1642
PTNL,relative probability (RP) (acc.to MMP2),[1]; [9],31.03
same,relative probability (RP) (acc.to MMP9),[2]; [11],36.13
PHNILS,relative probability (RP),[1]; [14],24.3767
same,relative probability (RP),[2]; [15],42.0557
PVGMKG,relative probability (RP),[1]; [14],32.557
same,relative probability (RP),[2]; [15],44.5811
PWMM [P3-P1' tetramer cluster],relative_probability,[2],46.92
PAPNSL,relative probability (RP),[1]; [14],24.6338
same,relative probability (RP),[2]; [15],34.9686
PRGFSH,relative probability (RP),[1]; [14],32.9171
same,relative probability (RP),[2]; [15],42.5506
PKKL,relative probability (RP) (acc.to MMP2),[1]; [9],8.1
same,relative probability (RP) (acc.to MMP9),[2]; [11],23.95
PRHS,relative probability (RP) (acc.to MMP2),[1]; [4],13.22
same,relative probability (RP) of matching tetramer,[1],13.22
same,relative probability (RP) (acc.to MMP2),[1]; [5],13.22
same,relative probability (RP) (acc.to MMP9),[2]; [6],18.44
same,relative probability (RP),[2]; [7],18.44
same,relative probability (RP) (acc.to MMP9),[2]; [8],18.44
PHGLAT,relative probability (RP),[1]; [14],32.9009
same,relative probability (RP),[2]; [15],46.2798
PSGI [P3-P1' tetramer cluster],relative probability (RP),[2]; [12],45.03
PQPLDL,relative probability (RP),[1]; [14],30.3595
same,relative probability (RP),[2]; [15],47.1306
LPKPLR,relative probability (RP),[1]; [14],33.5622
same,relative probability (RP),[2]; [15],48.2599
PFPL [P3-P1' tetramer cluster],relative probability (RP),[2]; [12],49.54
GVMQ,Relative probability (RP) rank,[2]; [10],91467
same,relative probability (RP),[2]; [10],0
PYAI [P3-P1' tetramer cluster],relative probability (RP),[2]; [16],51.7522
PWMI [P3-P1' tetramer cluster],relative_probability,[2],41.91
ITPL [P3-P1' tetramer cluster],relative probability (RP),[2]; [12],0.92
AKRF,relative probability (RP),[2]; tetramer annotation of MMP-9 cleavage sites in physiologic substrates from MEROPS,0.43
PFKI,relative probability (RP),[2]; [7],34.84
IRYV,relative probability (RP),[2]; [7],10.4
PFSV [P3-P1' tetramer cluster],relative probability (RP),[2]; [12],31.92
IIGL,Relative probability (RP) rank,[2]; [10],15777
same,relative probability (RP),[2]; [10],0.98
PMWM [P3-P1' tetramer cluster],relative probability (RP),[2]; [16],52.3808
PWPH,relative probability (RP),[2]; [7],15.08
PKAS [P3-P1' tetramer cluster],relative probability (RP),[2]; [12],25.84
PVPQ [P3-P1' tetramer cluster],relative probability (RP),[2]; [12],29.84
